Results as given in patent US6352989B1, “Nitrogenous heterocyclic derivatives and medicine thereof” (Eisai Co., Ltd., priority 1998, dated 2002).

Legend:
[1] = molecular target: PDE4D (Homo sapiens, UniProt Q08499); assay: Inhibitory action on PDE4 (homogenate of BHK cells expressing cloned human PDE4D, [3H]-cAMP hydrolysis); format: biochemical; conditions: average in triplicate measurements; 1 μM [3H]-cAMP substrate; read-out: PDE4 Inhibition IC50
Method: Inhibitory Action on PDE4: PDE4D was cloned from human placental mRNA by PCR techniques, and cDNA after an alternative spliced site (Mol. Cell. Biol., 13, 6558, 1993) was expressed in BHK cells. Two clones of BHK cells expressing PDE4 activity which was 100 or more times as high as endogenous PDE4 activity were obtained, and one of the clones was cultured in a large amount, and its homogenate was used as an enzyme source of PDE4.
50 mM Tris-HCl (pH 8.0), 0.1 mM EGTA, 0.1 mM MgCl2, 1 μM [^3H]-cGMP (100,000 dpm/tube) or 1 μM [^3H]-cAMP (100,000 dpm/tube) was added to the above homogenate, and 0.2 ml of the mixture was incubated at 30° C. for 10 to 20 minutes in the presence or absence of a test compound. The enzyme reaction was stopped by incubating the mixture at 95° C. for 1.5 minutes, and after cooling on ice, 50 μl nucleotidase (10 units/ml) was added thereto and incubated at 30° C. for 10 minutes. 550 μl of AG1-X2 resin slurry (H2O:resin=2:1) was added to the reaction mixture, then left at 4° C. for 10 minutes and centrifuged (10,000 rpm, 2.5 minutes, 4° C.), and 450 μl of the supernatant was measured for radioactivity.
The activity was compared in terms of IC50 (concentration of the compound at which 50% of the enzyme activity is inhibited) IC50 was determined by plotting of the concentration of cAMP as the substrate and the concentration of the compound on logarithmic graph paper. The results shown in Table 1 are the average in triplicate measurements. The test compound was first dissolved in DMSO and then diluted with the above-mentioned buffer for use.

[2] = tested on: TNFα production; assay: Inhibitory action on production of TNFα (LPS-stimulated human peripheral blood monocyte fraction, ELISA); format: cell-based; conditions: LPS-stimulated human peripheral blood monocytes, incubation 18 to 24 hours, read-out: TNF^α Inhibition IC50
Method: Inhibitory Action on Production of TNF: Human peripheral blood was collected in […] and centrifuged (1000 rpm, 10 minutes, at room temperature) to remove platelet rich plasma, and then the blood sample was mixed with Hank's balanced salt solution (HBSS) (with an equal volume to the removed plasma) containing penicillin (100 units/ml) and streptomycin (100 μg/ml) (referred to hereinafter as “p, s”). Ficoll-paque (Pharmacia) with an volume of 3/5 relative to the sample mixture was layered on the lower layer and centrifuged at 1500 rpm for 30 minutes at room temperature, and the monocyte nucleus fraction was collected. The resulting monocyte nucleus fraction was washed twice with p, s-containing HBSS and prepared as a cell float at a cell density of 2-4×10^6 cells/ml in p, s-containing RPMI1640 (containing 10% FCS). 400 μl of the prepared cell float was added to a 48-wells culture plate, and 50 μl LPS (100 ng/ml of saline) and 50 μl of each of compound solutions prepared at various concentrations were added to each well, followed by incubation at 37° C. in a 5% CO2 mixed air. After incubation for 18 to 24 hours, the incubated buffer was separated, and TNFα thus released from the cells was measured by an ELISA kit (Amasham).
The inhibitory action of the compound on production of TNFα was determined in terms of IC50 by plotting the concentrations of the compound and the amount of produced TNFα (%relative to the control) on semilogarithmic graph paper. The control (100%) for the amount of TNFα produced was obtained by subtracting the amount of TNFα produced in the (basal) group where neither LPS nor the compound was added, from the amount of TNFα produced in the (control) group where the compound was not added.
After the compound was dissolved at a concentration of […] in DMSO solution containing the compound at a concentration which was 1000 times as high as the final concentration, and then the solution was diluted with RPMI1640 containing 10% FCS and p,s, to prepare a solution containing the compound at a concentration which was 10 times as high as the final concentration. In place of the compound solution, RPMI1640 (1% DMSO, 10% FCS) containing p, s was added to the control group basal group. In place of the LPS solution, physiological saline was added to the basal group.

[3] = tested on: ZDP rat; assay: Blood sugar-depressing action (ZDP rat); format: in vivo; conditions: for Blood sugar level, Before the administration: baseline before the administration of the test compound; for Blood sugar level, After the continuous administration for 1 week / Glucose level relative to that (=100%) before the administration, after the continuous administration for 1 week: oral, once every day for 1 week; for Blood sugar level, After the continuous administration for 1 week: 4 hours fast, tail vein blood; for Glucose level relative to that (=100%) before the administration, after the continuous administration for 1 week: value in parentheses
Method: Blood Sugar-Depressing Action (ZDP rat): A test compound was suspended in 0.5% MC, and the suspension was orally administered to an animal once every day for 1 week. After the administration, the rat was allowed to fast for 4 hours, and blood was collected from the tail vein, added immediately to 0.6 M HClO4 (0.6 M HClO4=1:9), and centrifuged to give a supernatant which was then measured for glucose level by Glocose CII Test Wako Kit (Wako Pure Chemical Industries, Ltd., JP). In the table, values in the parentheses under the blood sugar level (mg/dl) indicate glucose levels relative to those (=100%) before the administration of the test compound.

PDE4D, sequence (Q08499 303-809 limits assumed): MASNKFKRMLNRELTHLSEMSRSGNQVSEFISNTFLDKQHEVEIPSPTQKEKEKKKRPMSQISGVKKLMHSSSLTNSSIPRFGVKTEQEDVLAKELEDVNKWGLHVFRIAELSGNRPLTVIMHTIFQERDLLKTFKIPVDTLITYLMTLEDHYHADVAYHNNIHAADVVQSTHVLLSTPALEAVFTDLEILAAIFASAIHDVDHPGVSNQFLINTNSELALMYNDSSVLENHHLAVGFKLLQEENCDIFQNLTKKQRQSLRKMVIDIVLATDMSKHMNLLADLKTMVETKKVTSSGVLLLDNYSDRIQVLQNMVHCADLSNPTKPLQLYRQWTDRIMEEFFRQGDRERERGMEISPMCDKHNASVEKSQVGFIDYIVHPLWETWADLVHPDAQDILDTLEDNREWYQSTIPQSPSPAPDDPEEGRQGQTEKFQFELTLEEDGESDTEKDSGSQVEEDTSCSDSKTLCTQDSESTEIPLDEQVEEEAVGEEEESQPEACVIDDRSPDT

Row | SMILES | melting point [°C] | IC50 [1] [nM] | IC50 [2] [nM] | Blood sugar level, Before the administration [3] [mg/dL] | Blood sugar level, After the continuous administration for 1 week [3] [mg/dL] | Glucose level relative to that (=100%) before the administration, after the continuous administration for 1 week [3]
1 | CNc1nc(-c2cccc(NC(=O)c3ccc(OC)c(OC)c3)c2)c2cc(OC)c(OC)cc2n1 [Example 14, 6,7-Dimethoxy-4-[3-(3,4-dimethoxybenzoylamino)phenyl]-2-methylaminoquinazoline] | 128 to 130 | 4 | 1.6 |  |  | 
2 | CNc1nc(-c2cccc(-c3cnc4ccccc4c3)c2)c2cc(OC)c(OC)cc2n1 [Example 49, 6,7-Dimethoxy-2-methylamino-4-[3-(3-quinolyl)phenyl]quinazoline] | 218 to 220 | 1.1 | 1.7 |  |  | 
3 | CNc1ccc(C(=O)Nc2cccc(-c3nc(NC)nc4cc(OC)c(OC)cc34)c2)cn1 [Example 32, 6,7-Dimethoxy-2-methylamino-4-[3-(6-methylaminonicotinoylamino)phenyl]quinazoline] | 193 to 195 | 2.6 | 2.3 | 478.5 ± 7.3 | 349.3 ± 44.3 | (73.0) %
4 | CCOc1cc2nc(NC)nc(-c3cccc(-c4cncc([S+](C)[O-])c4)c3)c2cc1OCC (centres unmarked) [Example 62] | 188 to 190 | 1.9 |  | 478.6 ± 24.0 | 369.1 ± 37.3 | (77.1) %
5 | CNc1nc(-c2cccc(NC(=O)c3ccncc3)c2)c2cc(OC)c(OC)cc2n1 [Example 2, 6,7-Dimethoxy-2-methylamino-4-[3-(4-pyridinecarbonylamino)phenyl]quinazoline] | 228 to 230 | 8.5 | 4.7 |  |  | 
6 | CNc1nc(-c2cccc(NC(=O)c3ccc(OC)c(Cl)c3)c2)c2cc(OC)c(OC)cc2n1 [Example 18, 4-[3-(3-Chloro-4-methoxybenzoylamino)phenyl]-6,7-dimethoxy-2-methylaminoquinazoline] | 130 to 132 | 1.4 | 3.3 |  |  | 
